From US20090176857A1, “Use of Organic Compounds” (priority 2005, published 2009)

Assays:
[1] = test system: patients with constipation predominant and alternating forms of IBS; conditions: literature abstract; cited from earlier work
[2] = test system: women with IBS-C (Rome II criteria) and IBS-M (modification of Rome II); assay: Randomized, double-blind, placebo-controlled, multicenter study, 4 weeks treatment, in patients with IBS-C and IBS-M; format: in vivo; conditions: for days/week with no BMs (mean) / stool consistency score using a 7-patient scale (mean) / days/wk with straining (mean) / weekly BM frequency (mean): p<0.05
Protocol: Evaluation of the effect of tegaserod (T) on multiple symptoms in women with mixed/alternating bowel habits.
METHODS: A randomized, double-blind, placebo-controlled, multicenter study was performed in patients with IBS-C (based on Rome II criteria) and IBS-M (modification of Rome II). The primary efficacy variable was the patients' assessment of satisfactory relief over 4 weeks treatment with T 6 mg bid or Placebo (P). The proportion of patients reporting satisfactory relief of 4 weeks (75% rule) and improvement during each of the 4 weeks in individual IBS symptoms were also assessed. Treatments were compared using a generalized linear model with logit link.
RESULTS: 661 women were randomized (IBS-C 337; IBS-M 324). Baseline symptom assessment clearly distinguished between the IBS-C and the IBS-M cohorts. Statistically significant differences were found between the two cohorts in bowel movement (BM) frequency, stool consistency and straining. T provided statistically significant improvement in satisfactory relief of IBS symptoms over a 4-week treatment (odds ratio 1.75; 95% CI: 1.35, 2.25; p-value<0.001) for the IBS-C and IBS-M cohorts. […] Adverse event discontinuations were low (IBS-C: T 1.2% v P 2.4% and IBS-M: T 2.5% v P 3.6%). Most frequent AEs (with discontinuations) were diarrhea (1.1%), headache (0.6%) and nausea (0.3%). No clinically significant diarrhea or colitis of any type was reported.

In the case of [H]/N=C(/NCCCCC)N/N=C/c1c[nH]c2ccc(OC)cc12 [T, tegaserod], the “safety and tolerability profile” value [1] is given as “favourable safety and tolerability profile”, the “satisfactory relief of IBS symptoms over a 4-week treatment, odds ratio” value ([2]; IBS-C and IBS-M cohorts, T 6 mg bid vs placebo, 95% CI: 1.35, 2.25, p<0.001) is given as 1.75 and the “percentage of patients experiencing satisfactory relief of IBS symptoms (75% rule)” value ([2]; IBS-C cohort, T 6 mg bid, 4 weeks, placebo 28.9%, p=0.008) is given as 43.3%. The “days/week with no BMs (mean)” value ([2]; IBS-C cohort, T 6 mg bid, placebo 2.18) was 2.31 days/week, the Adverse event discontinuations ([2]; IBS-C cohort, T 6 mg bid, placebo 2.4%) was 1.2% and the “stool consistency score using a 7-patient scale (mean)” value ([2]; IBS-C cohort, T 6 mg bid, placebo 2.89) was 3.53. For the same compound, the “days/wk with straining (mean)” value ([2]; IBS-C cohort, T 6 mg bid, placebo 3.55) was 3.08 days/wk, the “weekly BM frequency (mean)” value ([2]; IBS-C cohort, T 6 mg bid, placebo 6.06) was 6.88 and the “percentage of patients experiencing satisfactory relief of IBS symptoms (75% rule)” value ([2]; IBS-M cohort, T 6 mg bid, 4 weeks, placebo 36.3%, p=0.010) was 52.3%. The “days/week with no BMs (mean)” value ([2]; IBS-M cohort, T 6 mg bid, placebo 1.68) was 1.39 days/week, the “days/wk with straining (mean)” value ([2]; IBS-M cohort, T 6 mg bid, placebo 2.87) was 2.42 days/wk and the “stool consistency score using a 7-patient scale (mean)” value ([2]; IBS-M cohort, T 6 mg bid, placebo 3.49) was 3.95. The Adverse event discontinuations ([2]; IBS-M cohort, T 6 mg bid, placebo 3.6%) was 2.5%, the “weekly BM frequency (mean)” value ([2]; IBS-M cohort, T 6 mg bid, placebo 8.34) was 9.78 and the “treating the overall symptoms of IBS in patients with a mixed or alternating bowel habit (conclusion)” value ([2]; IBS-M, T 6 mg bid, 4 weeks) was “effective and safe”. The “Most frequent AEs (with discontinuations): diarrhea” value ([2]; treatment group not stated) was 1.1%, the “Most frequent AEs (with discontinuations): headache” value ([2]; treatment group not stated) was 0.6% and the “Most frequent AEs (with discontinuations): nausea” value ([2]; treatment group not stated) was 0.3%.
